Measured values reported in patent US12492173B2, “Herbicidal substituted N-tetrazolyl aryl carboxamides” (Bayer Aktiengesellschaft, priority 2019, dated 2025).

Legend:
Format in all cases: in vivo
[1] = test system: Setaria viridis; assay: Post-emergence herbicidal action, SETVI; parameters: key: % herbicidal action vs untreated; 100 = plants died, 0 = like control
Method in brief: (§1)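 Foliar application at the one-leaf stage of greenhouse-grown plants in sandy loam; compound applied as WP or EC in 600–800 l/ha water containing 0.2% wetting agent. Scores are visual percentages (0% like control, 100% plants died) taken after roughly 3 weeks.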

[2] = test system: Amaranthus retroflexus; assay: Pre-emergence herbicidal action, AMARE; conditions: dosage 320 g/ha; for herbicidal activity AMARE: scored visually after 3 weeks vs untreated controls (100% = plants have died)
Method in brief: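 Seeds were covered with sandy loam soil, then received a pre-emergence surface spray of the WP- or EC-formulated compound. After 3 weeks under good greenhouse growth conditions, damage was scored visually in percent.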

[3] = test system: Matricaria inodora; assay: Post-emergence herbicidal action, MATIN; parameters: key: % herbicidal action vs untreated; 100 = plants died, 0 = like control
Method in brief: as §1

[4] = test system: Polygonum convolvulus; assay: Post-emergence herbicidal action, POLCO; conditions: for herbicidal action POLCO: Dosage 80 g/ha
Method in brief: as §1

[5] = test system: Avena fatua; assay: Post-emergence herbicidal action, AVEFA; parameters: key: % herbicidal action vs untreated; 100 = plants died, 0 = like control
Method in brief: as §1

[6] = test system: Alopecurus myosuroides; assay: Post-emergence herbicidal action, ALOMY; parameters: key: % herbicidal action vs untreated; 100 = plants died, 0 = like control
Method in brief: as §1

SMILES	herbicidal action SETVI ([1]; Dosage 80 g/ha)	herbicidal action MATIN ([3]; Dosage 80 g/ha)	herbicidal action POLCO [4]	herbicidal action AVEFA ([5]; Dosage 80 g/ha)	herbicidal activity AMARE [2] [%]	further results
CCn1nnnc1NC(=O)c1ccc(S(C)(=O)=O)c(CS(C)(=O)=O)c1C [Example 2-39]	100	80				herbicidal action AMARE [2]: 100%
CSCc1c(C(F)F)ccc(C(=O)Nc2nnnn2C)c1C [Example 1-107, 4-(difluoromethyl)-2-methyl-3-[(methylsulfanyl)methyl]-N-(1-methyl-1H-tetrazol-5-yl)benzamide]	90	90	90	80	100	
Cn1nnnc1NC(=O)c1ccc(C(F)(F)F)c(CS(C)(=O)=O)c1F [Example 1-244]	100	100			100	
COc1c(C(=O)Nc2nnnn2C)ccc(C(F)(F)F)c1CSC [Example 1-134]	100	100	90	90	100	Herbicidal action against POLCO ([4]; post-emergence, dosage 80 g/ha): 80; Herbicidal action against SETVI ([1]; post-emergence, dosage 80 g/ha): 100; Herbicidal action against MATIN ([3]; comparative experiment, post-emergence, 5 g of a.i./ha): 90; Herbicidal action against MATIN ([3]; post-emergence, dosage 80 g/ha): 100
Cc1c(C(=O)Nc2nnnn2C)ccc(C(F)F)c1CS(C)(=O)=O [Example 1-109]	90	100			100	
Cn1nnnc1NC(=O)c1ccc(C(F)(F)F)c(CS(C)(=O)=O)c1Br [Example 1-382, 2-bromo-3-[(methylsulfonyl)methyl]-N-(1-methyl-1H-tetrazol-5-yl)-4-(trifluoromethyl)benzamide]	90	100	90	100	100	
CCCn1nnnc1NC(=O)c1ccc(C(F)F)c(C[S+]([O-])CC)c1Cl (centres unmarked) [Example 3-324]	100		100	100	100	
Cc1ccc(C(=O)Nc2nnnn2C)c(Cl)c1CS(C)(=O)=O [Example 1-289]	90	100			100	herbicidal action ALOMY ([6]; Dosage 80 g/ha): 80
CCCn1nnnc1NC(=O)c1ccc(C(F)(F)F)c(CSC)c1Cl [Example 3-296]	90	100		90	100	herbicidal action ALOMY ([6]; Dosage 80 g/ha): 80
Cn1nnnc1NC(=O)c1ccc(C(F)(F)F)c(C[S+](C)[O-])c1F (centres unmarked) [Example 1-243]	100	100		80	100	
CSCc1c(C(F)(F)F)ccc(C(=O)Nc2nnnn2C)c1SC [Example 1-161]	100	100		100	100	herbicidal action ALOMY ([6]; Dosage 80 g/ha): 90
CCCn1nnnc1NC(=O)c1ccc(C(F)(F)F)c(CS(=O)(=O)CC)c1Br [Example 3-385]	90	90	90		100	
CCCn1nnnc1NC(=O)c1ccc(C(F)(F)F)c(CS(C)(=O)=O)c1OC [Example 3-136]	100		80		100	herbicidal action ALOMY ([6]; Dosage 80 g/ha): 90
CCCn1nnnc1NC(=O)c1ccc(C(F)(F)F)c(CS(=O)(=O)CC)c1C [Example 3-88]	90	90	90	80	100	
Cc1c(C(=O)Nc2nnnn2C)ccc(C(F)(F)F)c1CS(C)(=O)=O [Example 1-85]	100	100	80	80	100	
CSCc1c(C(F)(F)F)ccc(C(=O)Nc2nnnn2C)c1F [Example 1-242]	90	90		80	100	
Cc1c(C(=O)Nc2nnnn2C)ccc(C(F)(F)F)c1C[S+](C)[O-] (centres unmarked) [Example 1-84]						herbicidal action ALOMY ([6]; post-emergence, dosage 80 g/ha): 80%; herbicidal action SETVI ([1]; post-emergence, dosage 80 g/ha): 100%; herbicidal action AVEFA ([5]; post-emergence, dosage 80 g/ha): 90%; herbicidal action MATIN ([3]; post-emergence, dosage 80 g/ha): 100%
CCCn1nnnc1NC(=O)c1ccc(C(F)F)c(CSC)c1C [Example 3-107]	90	90	90	80	100	
CCCn1nnnc1NC(=O)c1ccc(C(F)(F)F)c(CSC)c1OC [Example 3-134]	100	100	90	90	100	
CSCc1c(C(F)(F)F)ccc(C(=O)Nc2nnnn2C)c1Cl [Example 1-296]					100	herbicidal action ALOMY ([6]; post-emergence, dosage 80 g/ha): 100%; herbicidal action SETVI ([1]; post-emergence, dosage 80 g/ha): 100%; herbicidal action AVEFA ([5]; post-emergence, dosage 80 g/ha): 90%; herbicidal action MATIN ([3]; post-emergence, dosage 80 g/ha): 100%
CCn1nnnc1NC(=O)c1ccc(C(F)(F)F)c(CS(C)(=O)=O)c1OC [Example 2-136]	100	100		100	100	
CCn1nnnc1NC(=O)c1ccc(C(F)(F)F)c(C[S+](C)[O-])c1OC (centres unmarked) [Example 2-135]	100	100	90	100	100	
Cn1nnnc1NC(=O)c1ccc(Cl)c(CS(C)(=O)=O)c1Cl [Example 1-561]	100	100		90	100	
